PubChem BioAssay AID1963834 (Molecular Pharmacology Branch, DTP, NCI, 2024)

Test system: 873145-292-R-J1-PDC complex spheroid viability
Test: Anticancer human tumor 873145-292-R-J1-PDC patient-derived renal clear cell carcinoma cell line growth inhibition [POLQ]
Conditions: for IC50: curve of first compound; for viability, T/C: stronger effect = lower value
Method: Multicellular complex tumor spheroid response to Polymerase (POL) inhibitors (novobiocin, ART-558, RP6685) in combination with a variety of drugs and investigational agents in selected tumor cell lines
The POL inhibitors (novobiocin, ART-558, and RP6685) were evaluated both individually and in combination with standard of care and investigational anticancer small molecules within a complex spheroid model of solid tumors. . Complex spheroids include a stromal component modeled by human endothelial cells (HUVEC) and fibroblasts modeled by human mesenchymal stem cells (MSCs). The concentration ranges selected for each drug and investigational agent were based upon clinically achievable concentrations if the clinical Cmax of the agent was known.
Compounds. The drugs and investigational agents: novobiocin (NSC847541), ART-558 (NSC835418), RP-6685 (NSC848927), peposertib (NSC802822), ceralasertib (NSC780249), elimusertib (NSC800525), camonsertib (NSC841442), AZD-1390 (NSC803789), olaparib (NSC753686), talazoparib (NSC767125), rucaparib (NSC756644), sotorasib (NSC818433), MRTX-1133 (NSC836407), SN-38 (NSC673596), topotecan (NSC609699), epotoside (NSC141540), doxorubicin (NSC123127), gemcitabine (NSC613327), 5-fluorouracil (NSC19893), paclitaxel (NSC125973), vemurafenib (NSC761431), MSA-2 (NSC828583), SN-011 (NSC837082), adavosertib (NSC754352), prexasertib (NSC758257), carboplatin (NSC241240) and oxaliplatin (NSC266046), were obtained from the National Cancer Institute (NCI) Developmental Therapeutics Program Chemical Repository (21). The FDA-approved anticancer drug set is available from the Developmental Therapeutics Program at https://dtp.cancer.gov/organization/dscb/obtaining/. […] The stock solutions were prepared in dimethyl sulfoxide (DMSO, Sigma-Aldrich, St. Louis, MO, cat. D2650), except for the platinum compounds which were prepared in saline (Quality Biological, Gaithersburg, MD, cat. 114-055-101), at 800-fold the tested concentration and stored at -70 degrees C prior to their use. All drugs and investigational agents were tested over a range starting from a high concentration at or near the clinical Cmax and decreasing in half-log increments. If the clinical Cmax for an agent had not been determined, the highest concentration tested was 10 microM, except for SN-38, which was tested at a high concentration of 1 microM.
Cell Culture. All cells were maintained in an incubator at 37 degrees C and 5% CO2 with 95% humidity. The PDC lines were cultured according to standard operating procedures established by the NCI PDMR (https://pdmr.cancer.gov). Table 3 of the manuscript, lists the cell lines along with the number of the three cell types plated to form the mct-spheroids and media for tumor cell growth. After thawing, all PDC lines, except 997537-175-T-J1-PDC and 415267-285-R-J2-PDC, were cultured in Matrigel-coated flasks prepared with a working solution of 1X Ham's F-12 nutrient mix, without supplementation (Thermo Fisher Scientific, cat. 11765054), 100 U/mL penicillin-streptomycin (Thermo Fisher Scientific, cat. 15140122), and 2.5% Matrigel (Corning Inc., Corning, NY, cat. 354248) for the first three passages. The two PDC lines 997537-175-T-J1-PDC and 415267-285-R-J2-PDC were cultured on uncoated flasks. The 857933-349-R-J2-PDC line was cultured in 6C/Colon 1B media containing advanced DMEM/F-12 (Thermo Fisher Scientific, cat. 12634028), 10 mM HEPES (Thermo Fisher Scientific, cat. 15630080), 1X GlutaMAX supplement (Thermo Fisher Scientific, cat. 35050061), 0.1 mg/mL primocin (InvivoGen, San Diego, CA, cat. ant-pm-2), 10% defined fetal bovine serum, heat inactivated (HyClone Laboratories Inc., Logan, UT, cat. SH30070.03HI), 50% L-WRN conditioned media (ATCC, cat. CRL-3276), 1.25 mM N-Acetyl-L-cysteine (Sigma-Aldrich, cat. A9165), 10 mM nicotinamide (Sigma-Aldrich, cat. N0636), 1X B-27 supplement (Thermo Fisher Scientific, cat. 17504044), 1X N-2 supplement (Thermo Fisher Scientific, cat. […]
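Note: spheroids exposed to compounds for 7 days before viability readout.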
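Throughout, for viability, T/C: luminescence signal used as surrogate for viable cell content; 100% = DMSO vehicle control viability.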

Q: Which IC50 (second compound 0.0316 µM) does the source give for `CC(C)n1c(=O)n(C)c2cnc3cc(F)c(-c4ccc(OCCCN5CCCCC5)nc4)cc3c21` + Cc1cccc(N(C)C(=O)C2C(O)CCN2c2nc(C)cc(C(F)(F)F)c2C#N)c1 here?
A: > 10 µM

Q: What about the IC50 (second compound 0.1 µM) of the same compound?
A: > 10 µM

Q: And the IC50 (second compound 0.316 µM)?
A: > 10 µM

Q: What about the IC50 (second compound 1 µM) of the same compound?
A: > 10 µM

Q: What about the IC50 (second compound 3.16 µM) of the same compound?
A: > 10 µM

Q: And the IC50 (second compound 10 µM)?
A: > 10 µM

Q: What about the viability, T/C (second compound 0.0316 µM, first compound 0.0316 µM) of the same compound?
A: 84.6%

Q: What about the viability, T/C (second compound 0.0316 µM, first compound 0.1 µM) of the same compound?
A: 102%

Q: What about the viability, T/C (second compound 0.0316 µM, first compound 0.316 µM) of the same compound?
A: 96.9%

Q: What about the viability, T/C (second compound 0.0316 µM, first compound 1 µM) of the same compound?
A: 100%

Q: What about the viability, T/C (second compound 0.0316 µM, first compound 3.16 µM) of the same compound?
A: 89.2%

Q: What about the viability, T/C (second compound 0.0316 µM, first compound 10 µM) of the same compound?
A: 78.1%

Q: What about the viability, T/C (second compound 0.1 µM, first compound 0.0316 µM) of the same compound?
A: 94.7%

Q: And the viability, T/C (second compound 0.1 µM, first compound 0.1 µM)?
A: 103%

Q: What about the viability, T/C (second compound 0.1 µM, first compound 0.316 µM) of the same compound?
A: 100%

Q: What about the viability, T/C (second compound 0.1 µM, first compound 1 µM) of the same compound?
A: 90.4%

Q: And the viability, T/C (second compound 0.1 µM, first compound 3.16 µM)?
A: 85.9%

Q: What about the viability, T/C (second compound 0.1 µM, first compound 10 µM) of the same compound?
A: 76.4%

Q: And the viability, T/C (second compound 0.316 µM, first compound 0.0316 µM)?
A: 105%

Q: What about the viability, T/C (second compound 0.316 µM, first compound 0.1 µM) of the same compound?
A: 99%

Q: What about the viability, T/C (second compound 0.316 µM, first compound 0.316 µM) of the same compound?
A: 79.7%

Q: And the viability, T/C (second compound 0.316 µM, first compound 1 µM)?
A: 99.8%

Q: And the viability, T/C (second compound 0.316 µM, first compound 3.16 µM)?
A: 98.8%

Q: And the viability, T/C (second compound 0.316 µM, first compound 10 µM)?
A: 73.3%

Q: And the viability, T/C (second compound 1 µM, first compound 0.0316 µM)?
A: 106%

Q: What about the viability, T/C (second compound 1 µM, first compound 0.1 µM) of the same compound?
A: 106%

Q: And the viability, T/C (second compound 1 µM, first compound 0.316 µM)?
A: 102%

Q: And the viability, T/C (second compound 1 µM, first compound 1 µM)?
A: 91.8%

Q: And the viability, T/C (second compound 1 µM, first compound 3.16 µM)?
A: 89.2%

Q: And the viability, T/C (second compound 1 µM, first compound 10 µM)?
A: 72.4%

Q: And the viability, T/C (second compound 3.16 µM, first compound 0.0316 µM)?
A: 91%

Q: What about the viability, T/C (second compound 3.16 µM, first compound 0.1 µM) of the same compound?
A: 91.8%

Q: What about the viability, T/C (second compound 3.16 µM, first compound 0.316 µM) of the same compound?
A: 114%

Q: And the viability, T/C (second compound 3.16 µM, first compound 1 µM)?
A: 101%

Q: What about the viability, T/C (second compound 3.16 µM, first compound 3.16 µM) of the same compound?
A: 107%

Q: And the viability, T/C (second compound 3.16 µM, first compound 10 µM)?
A: 69.4%

Q: What about the viability, T/C (second compound 10 µM, first compound 0.0316 µM) of the same compound?
A: 88.8%

Q: What about the viability, T/C (second compound 10 µM, first compound 0.1 µM) of the same compound?
A: 98.6%

Q: What about the viability, T/C (second compound 10 µM, first compound 0.316 µM) of the same compound?
A: 104%

Q: What about the viability, T/C (second compound 10 µM, first compound 1 µM) of the same compound?
A: 90.2%

Q: And the viability, T/C (second compound 10 µM, first compound 3.16 µM)?
A: 87.8%

Q: And the viability, T/C (second compound 10 µM, first compound 10 µM)?
A: 66.4%
